{"source": "paper PMC9693223", "about": "(Molecules, 2022)", "key": {"[1]": {"test_system": "Leishmania major", "design": "method as in PMID 28453984", "conditions": "ref [36]; read-out: EC50 against Leishmania major; cited from earlier work"}, "[2]": {"test_system": "T. cruzi trypomastigotes", "test": "Effect on cell derived trypomastigotes (percent motile parasites)", "assay_type": "cell-based", "conditions": "Trypanosoma cruzi, 24 h incubation, percent of motile parasites", "procedure": "(§1) Trypomastigotes were obtained by infecting CHO-K1 cells. CHO-K1 cells were cultivated in RPMI-1640 medium supplemented with 10% heat-inactivated fetal calf serum (FCS), 0.15% (w/v) […], 100 µg mL^−1 penicillin and 130 µg mL^−1 streptomycin and incubated at 37 °C in a humidified atmosphere containing 5% CO2. CHO-K1 cells were initially incubated with metacyclic trypomastigotes obtained by in vitro differentiation of epimastigotes as previously described (multiplicity of infection: 50 parasites per cell) for 4 h. After washing out the non-internalized parasites, the cells were incubated overnight in RPMI medium supplemented with 10% FCS at 37 °C and then maintained at 33 °C in a humidified atmosphere containing 5% CO2 as previously reported. Infected cells were maintained at 33 °C in the presence of 10% FCS. Infected cell-derived trypomastigotes started to burst into the culture medium at the 5th day post-infection. Trypomastigotes collected at day 5 or 6 post infection were used for the viability assays.\nTo measure the effect of compounds, cell derived trypomastigotes were collected from the extracellular medium at the fifth or sixth day after infection and counted in a Neubauer chamber. […] After incubation the trypanocidal effect was assessed by counting the percent of motile parasites in a Neubauer chamber. […]"}, "[3]": {"test_system": "T. cruzi epimastigotes (CL Brener strain)", "test": "In vitro inhibition of proliferation of T. cruzi epimastigotes", "assay_type": "cell-based, Trypanosoma cruzi", "conditions": "Trypanosoma cruzi; cell densities at the 5th day of proliferation, four independent experiments", "procedure": "as §1\nThe density of exponentially proliferating epimastigotes for each assay was adjusted to 2.0 × 10^6 parasites mL^−1, transferred into 96-well plates (200 μL/well) and incubated with different concentrations of the compounds 5-F-2′-deoxyuridine, 5-F-uracil, 5-F-uridine or benznidazole. A combination of 60 μM rotenone and 0.5 μM antimycin (RA) was used as a positive control for proliferation inhibition (positive control), as previously described. […] The epimastigote proliferation was measured as previously reported, by reading the optical density (OD) at 620 nm every 24 h for 9 days (which collects readings through the exponential and stationary phases). […] The half-maximal inhibitory concentrations (IC50) were determined during the exponential growth phase (fifth day) by adjusting a sigmoidal dose-response function to experimentally obtained data using GraphPad Prism 8. The compounds were assessed in quadruplicate in each experiment, and the results correspond to four independent experiments."}, "[4]": {"test_system": "L. mexicana Cas9^ΔNT1+TcrNT2 promastigotes", "test": "Alamar blue drug sensitivity assay, L. mexicana Cas9^ΔNT1+TcrNT2 promastigotes", "assay_type": "cell-based, Leishmania mexicana", "conditions": "Cas9^ΔNT1+TcrNT2 in comparison to L. mexicana Cas9^ΔNT1", "excerpt": "We used L. mexicana promastigotes of the Cas9 strain developed by Beneke at al. to generate the ΔNT1 strain, and from there the Cas9^ΔNT1+TcrNT2 (see below); The original Cas9 strain was generously donated by Prof. Eva Gluenz (University of Bern, Switzerland). All strains in standard HOMEM (GIBCO, Life Technologies, Paisley, UK) supplemented with 10% heat-inactivated fetal bovine serum (FBS; PAA Laboratories, Linz, Austria) and 1% of a penicillin–streptomycin solution (10,000 U mL^−1 each; Life Technologies) at 25 °C, as described.\nThe Alamar blue assay (resazurin sodium salt) was used to determine the drug sensitivity of the L. mexicana promastigotes in vitro. The assay is based on the reduction of resazurin sodium salt (blue and non-fluorescent) to resorufin (pink color and fluorescent) by live cells. HOMEM medium with 10% FBS (100 μL) was added to all wells of a white 96-well plate apart from the first well. 200 μL of a known concentration of test compounds was diluted in HOMEM medium and placed in the first well. Compounds were tested in one plate and every compound was diluted over two rows (23 concentrations), leaving the last well of every dilution as a negative control having 100 μL HOMEM medium. Next, 100 μL of L. mexicana culture at a density of 2 × 10^6 cells mL^−1 was added into every well in the plate and incubated for 72 h at a temperature of 25 °C after which resazurin sodium salt (Sigma) (20 μL of a solution of 12.5 mg in 100 mL PBS) was added and the plate was incubated under the same conditions for a further 48 h. Fluorescence was measured in a FLUOstar OPTIMA plate reader (BMG Labtech, Germany), at a wavelength of 544 nm for excitation and 620 nm for emission. The EC50 values and fluorescence data were determined and plotted by the GraphPad Prism 8 Software using an equation for a sigmoid curve with variable slope. Pentamidine was used as positive control and every experiment was performed 3–4 times independently."}}, "data": [{"compound": "O=c1[nH]c(=O)n([C@H]2C[C@H](O)[C@@H](CO)O2)cc1F", "note": "[5-F-2′-dUrd, 5-F-2′-deoxyuridine]", "values": [{"measurement": "EC50", "setting": "[1]", "value": 1.4, "unit": "µM"}, {"measurement": "inhibition at 31 µM", "setting": "[2]", "value": "~30", "unit": "%"}, {"measurement": "IC50", "setting": "[3]", "value": "16.8 ± 0.01", "unit": "µM"}, {"measurement": "RF vs. ΔNT1 (resistance factor)", "setting": "[4]", "value": 14.8}]}]}
